Measured values taken from patent US20230124492A1, “COMPOSITIONS AND METHODS FOR SUBSTITUTED 7-(PIPERAZIN-1-YL)PYRAZOLO[1,5-A]PYRIMIDINE ANALOGS AS INHIBITORS OF KRAS” (The Board of Regents of the University of Texas System, priority 2019, published 2023).

Experiments:
wild type (WT) KRAS = wild type (WT) KRAS (Homo sapiens, UniProt P01116); assay: Intrinsic fluorescence (IF) binding affinity, WT KRAS bound to GNP
Procedure: (§1) FIGS. 2A-I illustrates the measurements of binding affinity of ligands to wild type (WT) or G120 KRAS bound to the GTP analogue GNP and, for selected exemplary embodiments, effect of ligands on the rate of SOS-mediated nucleotide exchange reaction. Binding affinity was determined using intrinsic fluorescence, which made use of the ligands' intrinsic fluorescence and the accompanying change (decrease or increase in intensity) upon binding to KRAS.
as §1, with “G12D” for “G120”, “reaction,” for “reaction.”
(§2) Solutions of ligand (0 to 50 μM) are mixed with equal volumes of KRAS (fixed concentration) and fluorescence spectra are obtained. The difference spectra (between KRAS-ligand mixture and ligand alone) are plotted and the area under the curve is obtained. Kd is estimated from the plot of area versus the ligand concentration. SOS-mediated nucleotide rate was monitored using the fluorescence intensity increase of BODIPY-GTP (B GTP) as it displaces GDP from KRAS. The reaction mixture (100 μL, 96 well plate) contained 0.5 μM K-Ras-GDP, 0.5 μm B-GTP, 0.5 μM SOS and varying concentrations of ligands (0 to 25 μM). B-GTP and SOS mixture was added just before measurements(excitation: 485 nm, emission: 510 nm; TECAN Infinite 200 plate reader). The reaction was monitored for 1 hour. The experiments were conducted with minimal light, Fluorescence intensities were normalized with respect to the value obtained at 120 s and the traces were fit with exponential function (Igor Pro, Wavemetrics).
(§3) Note: For FIGS. 1A-H 1 (as well as one of the curves in FIGS. 2A-I), dissociation constant (Kd) was determined using either Microscale Thermophoresis (MST) or Intrinsic Fluorescence (IF) assay. MST assay uses fluorescence to monitor movement of molecules in response to temperature gradient created by infrared laser.

G12D KRAS [1] = biological target: T1, G12D KRAS (Homo sapiens, UniProt P01116, G12D); assay: Intrinsic fluorescence (IF) binding affinity, G12D KRAS bound to GNP
Procedure: as §1
as §1, with “G12D” for “G120”, “reaction,” for “reaction.”
as §2, §3

WT KRAS [2] = biological target: T2, WT KRAS (Homo sapiens, UniProt P01116); assay: Intrinsic nucleotide exchange assay, WT KRAS; type: biochemical; conditions: for Intrinsic nucleotide exchange WT, single-dose test (effect / No effect): 25 microMolar ligand; for EC50: intrinsic nucleotide exchange, dose-response
Procedure: (§4) In other experiments, the compounds disclosed herein can be tested for their abilities to affect rates of intrinsic and SOS-catalyzed nucleotide exchange and release. These assays use fluorescently-labeled BODIPY-GDP (BGDP) and BODIPY-GTP (BGTP), which have increased fluorescence intensity when bound to KRAS. Rate of nucleotide exchange is determined by rate of increase in fluorescence after BGTP is added to GDP-KRAS in the absence or presence of SOS Rate of nucleotide release is determined from rate of decrease in, fluorescence when excess GTP is added to KRAS loaded with BGDP in the presence or absence of SOS, where SOS is “Sons of Sevenless” referring to a set of genes encoding guanine nucleotide exchange factors.

WT KRAS [3] = biological target: T2, WT KRAS; assay: SOS-mediated nucleotide exchange assay, WT KRAS; type: biochemical; conditions: for SOS-mediated nucleotide exchange WT, single-dose test (effect / No effect): 25 microMolar ligand; for EC50: SOS-mediated nucleotide exchange, dose-response
Procedure: as §4, §2

G12D KRAS [4] = biological target: T1, G12D KRAS; assay: Microscale thermophoresis (MST) Kd, G12D KRAS; type: binding
Procedure: (§5) Measurement of compound binding affinity to KKRAS using microscale thermophoresis (MST). MST is based on the movement of molecules in response to temperature gradient. […] KRAS was buffer-exchanged in the labeling buffer (40 mM HEPES, pH 7.5, 5 mM MgCl2, and 500 mM NaCl) using a spin column (provided in the kit) The concentration of the eluted protein was adjusted (10 to 20 μM) and 2-3 fold concentration of the dye (in labeling buffer) was added (200 μL final volume), The solution was incubated for 30 minutes at room temperature in the dark. Labeled KRAS was purified using the column provided in the kit or MST measurements, 16 point serial dilutions of ligands were made in MST Assay Buffer (40 mM HEPES, pH 7.5, 5 mM MgCl2, 100 mM NaCl+0.05% Tween-20+2-4% DMSO) and added to 100 nM KRAS. The solutions were loaded in capillaries and measurements were done using 20% LED power and 40% MST power. The data were fit in Igor Pro using Hill equation or the function in the instrument software.
(§6) Microscale thermophoresis (MST) assays were used to measure the affinity of lead compound analogs for KRAS. In a typical experiment, 100 nM KRAS labeled with a dye amine-reactive red NT-647 from NanoTemper) was mixed with different concentrations of ligand and incubated in a binding buffer (40 mM HEPES, pH 7.5, 5 mM MgCl2, 150 mM NaCl, 0.05% polysorbate 20, and 2% DMSO) at room temperature for 10 min before being loaded into a capillary. Thermophoresis is carried out and dissociation constant calculated by monitoring changes in fluorescence intensity. A monolith NT.115 Reader from NanoTemper can be used for MST experiments, with 40% MST and 20% LED power.
as §3

KRAS = KRAS (Homo sapiens, UniProt P01116, G12D); assay: Microscale thermophoresis (MST) binding affinity to KRAS (Table 1); conditions: 100 nM labeled KRAS, read-out: kD (dissociation constant)
Procedure: as §5, §6
Dissociation constants (IQ)) calculated from the thermophoresis results of selected compounds according to the present disclosure are presented in Table 1 below.
as §3

Chain of KRAS (P01116 whole entry G12D): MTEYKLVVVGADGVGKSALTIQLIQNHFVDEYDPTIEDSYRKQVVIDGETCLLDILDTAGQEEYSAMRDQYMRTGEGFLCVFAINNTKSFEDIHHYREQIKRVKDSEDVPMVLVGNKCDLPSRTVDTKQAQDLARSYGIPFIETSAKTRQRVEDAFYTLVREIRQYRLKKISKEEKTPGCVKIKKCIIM
Chain of wild type (WT) KRAS (P01116 1-188 isoform P01116-2): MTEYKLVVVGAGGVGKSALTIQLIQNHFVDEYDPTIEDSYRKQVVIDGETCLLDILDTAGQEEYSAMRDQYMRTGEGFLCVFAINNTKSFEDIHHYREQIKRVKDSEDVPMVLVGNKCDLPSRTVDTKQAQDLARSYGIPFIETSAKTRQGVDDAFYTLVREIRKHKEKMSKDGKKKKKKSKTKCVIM
T2 sequence (P01116 1-188 isoform P01116-2): as above
T1 sequence (P01116 1-188 isoform P01116-2 G12D): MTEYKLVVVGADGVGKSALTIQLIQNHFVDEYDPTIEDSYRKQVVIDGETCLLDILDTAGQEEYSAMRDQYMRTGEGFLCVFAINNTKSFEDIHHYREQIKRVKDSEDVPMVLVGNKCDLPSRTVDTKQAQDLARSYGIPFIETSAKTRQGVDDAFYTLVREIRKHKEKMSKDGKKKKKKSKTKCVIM

Row | Structure (SMILES) | Kd (wild type (WT) KRAS) [µM] | Kd (G12D KRAS [1]) [µM] | SOS-mediated nucleotide exchange WT, single-dose test (effect / No effect) (WT KRAS [3]) | also measured
1 | Cc1nn2c(N3CCN(CCO)CC3)cc(-c3cc(O)cc(O)c3)nc2c1-c1ccccc1 [C35″] | 8.4 ± 0.2 | 21.6 ± 4 | No effect in single dose @ 25 uM | Intrinsic nucleotide exchange WT, single-dose test (effect / No effect) (WT KRAS [2]): effect in single- dose @ 25 uM
2 | COc1ccccc1N1CCN(c2cc(-c3ccccc3)nc3c(-c4ccccc4)c(C)nn23)CC1 [Compound C18] | – | – | – | Kd (G12D KRAS [4]): > 86000 nM
3 | Cc1nn2c(N3CCC(CCO)CC3)cc(-c3ccccc3)nc2c1-c1ccccc1 [Compound C40] | 63.1 ± 5.3 | 25.7 ± 0.2 | – | –
4 | Cc1nn2c(N3CCC(CCO)CC3)cc(-c3ccc(F)cc3)nc2c1-c1ccccc1 [Compound C39] | 39.5 ± 1.9 | 22.9 ± 2.2 | – | –
5 | Cc1cc(NCCN(C)C)n2nc(C)c(-c3ccccc3)c2n1 [Compound C16] | – | – | – | Kd (G12D KRAS [4]): > 200000 nM
6 | Cc1nn2c(N3CCN(CCO)CC3)cc(-c3ccc(F)cc3)nc2c1-c1ccccc1 [C21″] | 4.6 ± 0.2 | 6.8 ± 0.5 | – | Kd (G12D KRAS [4]): 520 ± 200 nM; EC50 (WT KRAS [2]): 34 ± 6.4 µM; EC50 (WT KRAS [3]): 18.8 ± 3.3 µM
7 | OCCN1CCN(c2cc(-c3ccccc3)nc3c(-c4ccccc4)c(-c4ccccc4)nn23)CC1 [C14″] | 12.3 ± 0.1 | 11.2 ± 0.2 | – | Kd (G12D KRAS [4]): 880 ± 400 nM; EC50 (WT KRAS [2]): 12.4 ± 4.8 µM
8 | COc1ccc(-c2cc(N3CCN(CCO)CC3)n3nc(C)c(-c4ccccc4)c3n2)cc1 [C25″] | – | – | effect in single- dose @ 25 uM | –
9 | OCCN1CCN(c2cc(-c3ccccc3)nc3c(-c4ccccc4)c(-c4cc[nH]c4)nn23)CC1 [Compound C36] | 20.6 ± 0.4 | 22.4 ± 8 | – | –
10 | Cc1cc2nc(-c3ccccc3)cc(N3CCN(CCO)CC3)n2n1 [Compound C44] | 5 to 15 | – | – | –
11 | Cc1nn2c(N3CCN(CCO)CC3)nc(-c3ccccc3)nc2c1-c1ccccc1 [Compound C41] | ~20 | – | – | EC50 (WT KRAS [2]): 15 to 25 µM
12 | Cc1nn2c(N3CCN(CCO)CC3)cc(-c3ccccc3)nc2c1-c1cc(F)cc(F)c1 [C28″] | 21.7 ± 0.4 | 23.5 ± 0.8 | No effect in single dose @ 25 uM | Intrinsic nucleotide exchange WT, single-dose test (effect / No effect) (WT KRAS [2]): effect in single- dose @ 25 uM
13 | CCOC(=O)N1CCN(c2cc(-c3ccccc3)nc3c(-c4ccccc4)c(C)nn23)CC1 [C27″] | – | – | no effect in single dose @ 25 uM | –
14 | COCCN1CCN(c2cc(-c3ccccc3)nc3c(-c4ccccc4)c(C)nn23)CC1 [Compound C6] | – | – | – | Kd (KRAS): > 76000 nM
15 | Cc1nn2c(N3CCN(CCO)CC3)cc(-c3ccccc3)nc2c1-c1ccc(O)cc1 [C31″] | – | – | No effect in single dose @ 25 uM | Intrinsic nucleotide exchange WT, single-dose test (effect / No effect) (WT KRAS [2]): No effect in single dose @ 25 uM
16 | COc1ccccc1N1CCN(c2cc(-c3ccccc3)nc3c(-c4ccccc4)c(C)nn23)CC1 [Compound C7] | – | – | – | Kd (KRAS): > 86000 nM
17 | OCCN1CCN(c2cc(-c3ccccc3)nc3c(-c4ccccc4)c(-c4ccc(O)cc4)nn23)CC1 [Compound C38] | 19.1 ± 0.1 | 63.1 ± 5.3 | – | –

Row | Structure (SMILES) | Kd (wild type (WT) KRAS) [µM] | Kd (G12D KRAS [1]) [µM] | SOS-mediated nucleotide exchange WT, single-dose test (effect / No effect) (WT KRAS [3]) | also measured
18 | OCCN1CCN(c2cc(-c3ccccc3)nc3c(-c4ccccc4)c(C(F)(F)F)nn23)CC1 [C32″] | – | – | effect in single- dose @ 25 uM | Intrinsic nucleotide exchange WT, single-dose test (effect / No effect) (WT KRAS [2]): effect in single- dose @ 25 uM
19 | Cc1nn2c(NCCCN(C)C)cc(-c3ccccc3)nc2c1-c1ccccc1 [Compound C45] | 28.3 ± 5.4 | – | – | –
20 | OCCN1CCN(c2cc(-c3ccccc3)nc3c(-c4ccccc4)c(-c4ccccc4)nn23)CC1 [Compound C3] | – | – | – | Kd (KRAS): 880 ± 360 nM
21 | Cc1nn2c(N3CCN(CCO)CC3)cc(-c3ccncc3)nc2c1-c1ccccc1 [C22″] | – | – | no effect in single dose @ 25 uM | Kd (G12D KRAS [4]): > 100000 nM
22 | Cc1nn2c(N3CCN(CCO)CC3)cc(-c3nccn3C)nc2c1-c1ccccc1 [C23″] | – | – | effect in single- dose @ 25 uM | Kd (G12D KRAS [4]): > 200000 nM; Intrinsic nucleotide exchange WT, single-dose test (effect / No effect) (WT KRAS [2]): effect in single- dose @ 25 uM
23 | Cc1cc(N2CCN(CCO)CC2)n2nc(C)c(-c3ccccc3)c2n1 [C13″] | – | – | – | EC50 (WT KRAS [2]): 28.8 ± 4 µM; EC50 (WT KRAS [3]): 57.8 ± 4 µM
24 | COCCN1CCN(c2cc(-c3ccccc3)nc3c(-c4ccccc4)c(C)nn23)CC1 [C17″] | – | – | – | Kd (G12D KRAS [4]): > 76000 nM
25 | Cc1nn2c(NCCN(C)C)cc(-c3ccccc3)nc2c1-c1ccccc1 [Compound C4] | – | – | – | Kd (KRAS): 990 ± 140 nM
26 | Cc1nn2c(N3CCN(CCO)CC3)cc(-c3ccccc3)nc2c1-c1ccccc1 [C11″] | – | 4.54 ± 0.1 | – | Kd (G12D KRAS [4]): 870 ± 100 nM
27 | COCc1nn2c(N3CCN(CCO)CC3)cc(-c3ccccc3)nc2c1-c1ccccc1 [Compound C43] | 5 to 15 | – | – | –
28 | CCc1nn2c(N3CCN(CCO)CC3)cc(-c3ccccc3)nc2c1-c1ccccc1 [C26″] | – | – | effect in single- dose @ 25 uM | Intrinsic nucleotide exchange WT, single-dose test (effect / No effect) (WT KRAS [2]): effect in single- dose @ 25 uM
29 | OCCN1CCN(c2cc(-c3ccccc3)nc3c(-c4ccccc4)c(C4CC4)nn23)CC1 [C29″] | – | – | effect in single- dose @ 25 uM | –
30 | COc1ccc(-c2nn3c(N4CCN(CCO)CC4)cc(-c4ccccc4)nc3c2-c2ccccc2)cc1 [Compound C37] | 22.6 ± 0.3 | 11.8 ± 0.2 | – | –
31 | Cc1nn2c(NCCN(C)C)cc(-c3ccccc3)nc2c1-c1ccccc1 [Compound C15] | – | – | – | Kd (G12D KRAS [4]): 990 ± 100 nM
32 | Cc1nn2c(N3CCN(CCO)CC3)cc(-c3cc(F)cc(F)c3)nc2c1-c1ccccc1 [C33″] | – | 79 ± 78 | No effect in single dose @ 25 uM | Intrinsic nucleotide exchange WT, single-dose test (effect / No effect) (WT KRAS [2]): effect in single- dose @ 25 uM
33 | Cc1nn2c(N3CCN(CCO)CC3)cc(-c3ccc(O)cc3)nc2c1-c1ccccc1 [C30″] | 12.2 ± 0.4 | 18.4 ± 10 | – | EC50 (WT KRAS [3]): 15.9 ± 3.4 µM
